The values that follow come from PMC10790229 (Journal of medicinal chemistry, 2023).

What all share (assay type): cell-based
The subject of one series is HIV-1 IIIB. Kind of series: Anti-HIV-1 activity in MT-4 cells. The note with it: MT-4 cells; for SI IIIB (CC50/EC50): HIV-1 IIIB.
In the next series the test system is MT-4 cells. Kind of series: Cytotoxicity in uninfected MT-4 cells.
A further series concerns HIV-2 ROD. As to the kind of experiment: Anti-HIV-2 activity in MT-4 cells. The conditions noted are these: HIV-2 ROD; for EC50: read-out: EC50 ROD, 50% protection of MT-4 cells against HIV-induced cytotoxicity.

By CC50 is commonly meant the concentration that lowers cell viability or growth by half. One may read the EC50 as the concentration that produces a half-maximal response. As to “(S)-N-(1-(7-Fluoro-3-(4-methoxyphenyl)-4-oxo-3,4-dihydroquinazolin-2-yl)-2-phenylethyl)-2-(4-((4-nitrophenyl)sulfonyl)-2-oxopiperazin-1-yl)acetamide [11b1]”, in the series on HIV-1 IIIB, the “SI IIIB (CC50/EC50)” value was above 88.03 and the “Ratio IIIB(EC50)/ROD(EC50)” value amounted to 3.55. Besides, the CC50 in the series with MT-4 cells was above 175000 nM. Also, the “SI ROD (CC50/EC50)” value in the series with HIV-2 ROD (MT-4 cells) is reported as above 312.50. Also, in the series on HIV-2 ROD, the EC50 amounted to 560 ± 140 nM.
On to `COc1ccc(-n2c([C@H](Cc3cc(F)cc(F)c3)NC(=O)CN3CCN(S(=O)(=O)c4ccc([N+](=O)[O-])cc4)CC3=O)nc3cc(Br)ccc3c2=O)cc1` [11d2, (S)-N-(1-(7-Bromo-3-(4-methoxyphenyl)-4-oxo-3,4-dihydroquinazolin-2-yl)-2-(3,5-difluorophenyl)ethyl)-2-(4-((4-nitrophenyl)sulfonyl)-2-oxopiperazin-1-yl)acetamide], for which, in the series on HIV-1 IIIB, the “SI IIIB (CC50/EC50)” value is given as above 156.25 and the “Ratio IIIB(EC50)/ROD(EC50)” value was 1.68. In the series with MT-4 cells, this molecule yielded a 50% cytotoxic concentration (CC50) above 154000 nM. Moreover, the “SI ROD (CC50/EC50)” value with HIV-2 ROD (MT-4 cells) is listed as above 260.42. Besides, the EC50 in the series with HIV-2 ROD is 590 ± 200 nM.
As to `COc1ccc(-n2c([C@H](Cc3ccccc3)NC(=O)CN3CCN(S(=O)(=O)c4ccc([N+](=O)[O-])cc4)CC3=O)nc3ccccc3c2=O)cc1` [11a1, (S)-N-(1-(3-(4-Methoxyphenyl)-4-oxo-3,4-dihydroquinazolin-2-yl)-2-phenylethyl)-2-(4-((4-nitrophenyl)sulfonyl)-2-oxopiperazin-1-yl)acetamide], the “SI IIIB (CC50/EC50)” value in the series on HIV-1 IIIB is listed as above 119.05. In the series with HIV-2 ROD (MT-4 cells), the “SI ROD (CC50/EC50)” value is listed as above 312.50.
Regarding `COc1ccc(-n2c([C@H](Cc3cc(F)cc(F)c3)NC(=O)CN3CCN(S(=O)(=O)c4ccc([N+](=O)[O-])cc4)CC3=O)nc3ccccc3c2=O)cc1` [11a2, (S)-N-(2-(3,5-Difluorophenyl)-1-(3-(4-methoxyphenyl)-4-oxo-3,4-dihydroquinazolin-2-yl)ethyl)-2-(4-((4-nitrophenyl)sulfonyl)-2-oxopiperazin-1-yl)acetamide], in the series with HIV-1 IIIB, the “SI IIIB (CC50/EC50)” value is on record as above 320.51 and the “Ratio IIIB(EC50)/ROD(EC50)” value stood at 1.29. Also, the CC50 in the series with MT-4 cells is above 171000 nM. Moreover, in the series with HIV-2 ROD (MT-4 cells), the “SI ROD (CC50/EC50)” value was above 416.67. In addition, the EC50 in the series on HIV-2 ROD was 410 ± 40 nM.
For `COc1ccc(-n2c([C@H](Cc3cc(F)cc(F)c3)NC(=O)CN3CCN(S(=O)(=O)c4ccc(N)cc4)CC3=O)nc3cc(F)ccc3c2=O)cc1` [12b2, (S)-2-(4-((4-Aminophenyl)sulfonyl)-2-oxopiperazin-1-yl)-N-(2-(3,5-difluorophenyl)-1-(7-fluoro-3-(4-methoxyphenyl)-4-oxo-3,4-dihydroquinazolin-2-yl)ethyl)acetamide], in the series with HIV-1 IIIB, the “SI IIIB (CC50/EC50)” value is given as above 568.18 and the “Ratio IIIB(EC50)/ROD(EC50)” value was found to be 2.58. The molecule also yielded a CC50 with MT-4 cells above 173000 nM. For the same molecule, in the series on HIV-2 ROD (MT-4 cells), the “SI ROD (CC50/EC50)” value is recorded as above 1488.10. Further, the EC50 with HIV-2 ROD worked out at 120 ± 30 nM.
For “(S)-2-(4-((4-Aminophenyl)sulfonyl)-2-oxopiperazin-1-yl)-N-(1-(7-chloro-3-(4-methoxyphenyl)-4-oxo-3,4-dihydroquinazolin-2-yl)-2-phenylethyl)acetamide [12c1]”, in the series on HIV-1 IIIB, the “SI IIIB (CC50/EC50)” value is given as above 290.70 and the “Ratio IIIB(EC50)/ROD(EC50)” value is on record as 6.10. In the series with MT-4 cells, the CC50 was above 178000 nM. Besides, the “SI ROD (CC50/EC50)” value in the series on HIV-2 ROD (MT-4 cells) is on record as above 1736.11. Further, the EC50 in the series with HIV-2 ROD turned out to be 100 ± 20 nM.
Regarding `Nc1ccc(S(=O)(=O)N2CCN(CC(=O)N[C@@H](Cc3cc(F)cc(F)c3)c3nc4ccccc4c(=O)n3-c3ccc(S(=O)(=O)N4CCS(=O)(=O)CC4)cc3)C(=O)C2)cc1` [21b2, (S)-2-(4-((4-Aminophenyl)sulfonyl)-2-oxopiperazin-1-yl)-N-(2-(3,5-difluorophenyl)-1-(3-(4-((1,1-dioxidothiomorpholino)sulfonyl)-phenyl)-4-oxo-3,4-dihydroquinazolin-2-yl)ethyl)acetamide], in the series on HIV-1 IIIB, the “SI IIIB (CC50/EC50)” value is on record as above 95.42 and the “Ratio IIIB(EC50)/ROD(EC50)” value turned out to be 2.52. The CC50 with MT-4 cells was above 144000 nM. Moreover, the “SI ROD (CC50/EC50)” value in the series on HIV-2 ROD (MT-4 cells) is above 240.38. Also, the concentration giving a half-maximal response (EC50) in the series on HIV-2 ROD worked out at 600 ± 150 nM.
Take `COc1ccc(-n2c([C@H](Cc3cc(F)cc(F)c3)NC(=O)CN3CCN(S(=O)(=O)c4ccc([N+](=O)[O-])cc4)CC3=O)nc3cc(S(C)(=O)=O)ccc3c2=O)cc1` [11e2, (S)-N-(2-(3,5-Difluorophenyl)-1-(3-(4-methoxyphenyl)-7-(methylsulfonyl)-4-oxo-3,4-dihydroquinazolin-2-yl)ethyl)-2-(4-((4-nitrophenyl)sulfonyl)-2-oxopiperazin-1-yl)acetamide]: in the series with HIV-1 IIIB, the “SI IIIB (CC50/EC50)” value is above 83.89 and the “Ratio IIIB(EC50)/ROD(EC50)” value worked out at 4.49. Also, the CC50 with MT-4 cells is above 154000 nM. In the series with HIV-2 ROD (MT-4 cells), the “SI ROD (CC50/EC50)” value is given as above 378.79. For the same molecule, the EC50 in the series on HIV-2 ROD turned out to be 410 ± 50 nM.
Regarding `O=C(CN1CCN(S(=O)(=O)c2ccc([N+](=O)[O-])cc2)CC1=O)N[C@@H](Cc1cc(F)cc(F)c1)c1nc2ccccc2c(=O)n1-c1ccc(S(=O)(=O)N2CCOCC2)cc1` [20a2, (S)-N-(2-(3,5-Difluorophenyl)-1-(3-(4-(morpholinosulfonyl)-phenyl)-4-oxo-3,4-dihydroquinazolin-2-yl)ethyl)-2-(4-((4-nitrophenyl)sulfonyl)-2-oxopiperazin-1-yl)acetamide], in the series on HIV-1 IIIB, the “SI IIIB (CC50/EC50)” value is on record as above 892.86 and the “Ratio IIIB(EC50)/ROD(EC50)” value was 0.89. Moreover, the CC50 in the series with MT-4 cells is above 147000 nM. For the same molecule, in the series with HIV-2 ROD (MT-4 cells), the “SI ROD (CC50/EC50)” value is given as above 833.33. Also, the EC50 in the series on HIV-2 ROD came out at 180 ± 50 nM.
In the case of `COc1ccc(-n2c([C@H](Cc3ccccc3)NC(=O)CN3CCN(S(=O)(=O)c4ccc([N+](=O)[O-])cc4)CC3=O)nc3cc(S(C)(=O)=O)ccc3c2=O)cc1` [11e1, (S)-N-(1-(3-(4-Methoxyphenyl)-7-(methylsulfonyl)-4-oxo-3,4-dihydroquinazolin-2-yl)-2-phenylethyl)-2-(4-((4-nitrophenyl)-sulfonyl)-2-oxopiperazin-1-yl)acetamide], in the series with HIV-1 IIIB, the “SI IIIB (CC50/EC50)” value is above 58.14 and the “Ratio IIIB(EC50)/ROD(EC50)” value was found to be 8.66. In addition, the CC50 in the series on MT-4 cells is above 161000 nM. Further, the “SI ROD (CC50/EC50)” value in the series on HIV-2 ROD (MT-4 cells) was above 500.00. The EC50 in the series with HIV-2 ROD stood at 320 ± 30 nM.
Take `COc1ccc(-n2c([C@H](Cc3ccccc3)NC(=O)CN3CCN(S(=O)(=O)c4ccc([N+](=O)[O-])cc4)CC3=O)nc3cc(Cl)ccc3c2=O)cc1` [11c1, (S)-N-(1-(7-Chloro-3-(4-methoxyphenyl)-4-oxo-3,4-dihydroquinazolin-2-yl)-2-phenylethyl)-2-(4-((4-nitrophenyl)sulfonyl)-2-oxopiperazin-1-yl)acetamide]: in the series on HIV-1 IIIB, the “SI IIIB (CC50/EC50)” value is above 79.11 and the “Ratio IIIB(EC50)/ROD(EC50)” value was 5.14. The CC50 with MT-4 cells is above 171000 nM. The “SI ROD (CC50/EC50)” value in the series on HIV-2 ROD (MT-4 cells) was above 403.23. In addition, the EC50 in the series with HIV-2 ROD was 420 ± 40 nM.
With “(S)-N-(1-(7-Chloro-3-(4-methoxyphenyl)-4-oxo-3,4-dihydroquinazolin-2-yl)-2-(3,5-difluorophenyl)ethyl)-2-(4-((4-nitrophenyl)sulfonyl)-2-oxopiperazin-1-yl)acetamide [11c2]”, in the series on HIV-1 IIIB, the “SI IIIB (CC50/EC50)” value is on record as above 277.78 and the “Ratio IIIB(EC50)/ROD(EC50)” value is 1.48. In the series on MT-4 cells, this molecule displayed a CC50 above 163000 nM. Also, the “SI ROD (CC50/EC50)” value with HIV-2 ROD (MT-4 cells) is given as above 403.23. Further, the EC50 in the series on HIV-2 ROD amounted to 400 ± 100 nM.
Turning to “(S)-2-(4-((4-Aminophenyl)sulfonyl)-2-oxopiperazin-1-yl)-N-(1-(3-(4-(morpholinosulfonyl)phenyl)-4-oxo-3,4-dihydroquinazolin-2-yl)-2-phenylethyl)acetamide [21a1]”, in the series with HIV-1 IIIB, the “SI IIIB (CC50/EC50)” value is above 1041.67 and the “Ratio IIIB(EC50)/ROD(EC50)” value was 1.50. This molecule also returned a CC50 in the series on MT-4 cells above 159000 nM. In the series with HIV-2 ROD (MT-4 cells), the “SI ROD (CC50/EC50)” value was above 1562.50. The EC50 with HIV-2 ROD came out at 100 ± 10 nM.
Take `O=C(CN1CCN(S(=O)(=O)c2ccc([N+](=O)[O-])cc2)CC1=O)N[C@@H](Cc1ccccc1)c1nc2ccccc2c(=O)n1-c1ccc(S(=O)(=O)N2CCS(=O)(=O)CC2)cc1` [20b1, (S)-N-(1-(3-(4-((1,1-Dioxidothiomorpholino)sulfonyl)phenyl)-4-oxo-3,4-dihydroquinazolin-2-yl)-2-phenylethyl)-2-(4-((4-nitrophenyl)sulfonyl)-2-oxopiperazin-1-yl)acetamide]: in the series on HIV-1 IIIB, the “SI IIIB (CC50/EC50)” value was above 11.47 and the “Ratio IIIB(EC50)/ROD(EC50)” value came out at 17.29. Besides, the CC50 with MT-4 cells was above 145000 nM. The “SI ROD (CC50/EC50)” value in the series with HIV-2 ROD (MT-4 cells) was above 198.41. In addition, the EC50 in the series with HIV-2 ROD worked out at 730 ± 160 nM.
Regarding “(S)-2-(4-((4-Aminophenyl)sulfonyl)-2-oxopiperazin-1-yl)-N-(1-(3-(4-methoxyphenyl)-4-oxo-3,4-dihydroquinazolin-2-yl)-2-phenylethyl)acetamide [12a1]”, in the series with HIV-1 IIIB, the “SI IIIB (CC50/EC50)” value is above 290.70 and the “Ratio IIIB(EC50)/ROD(EC50)” value was determined as 4.27. In the series with MT-4 cells, this molecule displayed a CC50 above 187000 nM. Further, the “SI ROD (CC50/EC50)” value in the series on HIV-2 ROD (MT-4 cells) is recorded as above 1250.00. In addition, in the series on HIV-2 ROD, the EC50 is 150 ± 40 nM.
`COc1ccc(-n2c([C@H](Cc3cc(F)cc(F)c3)NC(=O)CN3CCN(S(=O)(=O)c4ccc(N)cc4)CC3=O)nc3cc(Cl)ccc3c2=O)cc1` [12c2, (S)-2-(4-((4-Aminophenyl)sulfonyl)-2-oxopiperazin-1-yl)-N-(1-(7-chloro-3-(4-methoxyphenyl)-4-oxo-3,4-dihydroquinazolin-2-yl)-2-(3,5-difluorophenyl)ethyl)acetamide]: in the series on HIV-1 IIIB, the “SI IIIB (CC50/EC50)” value is given as above 1250.00 and the “Ratio IIIB(EC50)/ROD(EC50)” value was found to be 1.75. Also, the CC50 in the series with MT-4 cells is above 170000 nM. Moreover, in the series with HIV-2 ROD (MT-4 cells), the “SI ROD (CC50/EC50)” value is above 2083.33 and the “fold improvement of anti-HIV-2 potency over PF74” value was found to be 47 fold. The concentration giving a half-maximal response (EC50) with HIV-2 ROD amounted to 80 ± 10 nM.
Turning to “(S)-N-(2-(3,5-Difluorophenyl)-1-(7-fluoro-3-(4-methoxyphenyl)-4-oxo-3,4-dihydroquinazolin-2-yl)ethyl)-2-(4-((4-nitrophenyl)sulfonyl)-2-oxopiperazin-1-yl)acetamide [11b2]”, in the series with HIV-1 IIIB, the “SI IIIB (CC50/EC50)” value was above 337.84 and the “Ratio IIIB(EC50)/ROD(EC50)” value came to 1.40. In addition, the CC50 in the series with MT-4 cells was above 167000 nM. For the same molecule, the “SI ROD (CC50/EC50)” value in the series on HIV-2 ROD (MT-4 cells) is listed as above 480.77. Besides, in the series on HIV-2 ROD, the EC50 turned out to be 350 ± 30 nM.
